Measurements: ChEMBL document CHEMBL1159170 (Bioorg Med Chem Lett, 1995)
pKi: −log10 of the molar value. Active and inactive are the calls of the source. The calls are words filed in the database; no cut-off is given here.

Assays:
Canis familiaris [1] = test: Ability to induce dilation of dog renal artery when administered intravenously; Values is potency versus DPDA; type: functional, Canis lupus familiaris
Canis familiaris [2] = test: Blockade of dog femoral artery dilation by the D-2 antagonist domperidone was measured after intravenous administration of […]; type: functional, Canis lupus familiaris
Canis familiaris [3] = test: Blockade of dog renal artery dilation by the […] was measured after intravenous administration of 0.05-0.1 mg/kg; type: functional, Canis lupus familiaris
Canis familiaris [4] = test: Ability to induce dilation of dog femoral artery when administered intravenously; Values is potency versus DPDA; type: functional, Canis lupus familiaris
Rattus norvegicus [5] = test: Compound was tested for urine flow in conscious spontaneously hypertensive rats after peroral administration of 30 mg/kg; type: functional; settings: route oral
Rattus norvegicus [6] = test: Compound was tested for mean blood pressure effect in conscious spontaneously hypertensive rats after peroral administration of 30 mg/kg; type: functional; settings: route oral
D(1A) dopamine receptor = D(1A) dopamine receptor (Rattus norvegicus, UniProt P18901); test: Binding affinity against Dopamine receptor D1 in rat striatal membranes using [3H]SCH-23390; type: cell membranes, Striatum, Membrane
D(2) dopamine receptor = D(2) dopamine receptor (Rattus norvegicus, UniProt P61169); test: Binding affinity against Dopamine receptor D2 in rat striatal membranes using [3H]spiperone; type: cell membranes, Striatum, Membrane
[7] = target: T1, Adrenergic receptor alpha-1 (Homo sapiens, UniProt P35348+P25100+P35368); test: Compound was tested for its binding affinity against Alpha-1 adrenergic receptor; type: protein assay
T1 sequence (P35348 whole entry): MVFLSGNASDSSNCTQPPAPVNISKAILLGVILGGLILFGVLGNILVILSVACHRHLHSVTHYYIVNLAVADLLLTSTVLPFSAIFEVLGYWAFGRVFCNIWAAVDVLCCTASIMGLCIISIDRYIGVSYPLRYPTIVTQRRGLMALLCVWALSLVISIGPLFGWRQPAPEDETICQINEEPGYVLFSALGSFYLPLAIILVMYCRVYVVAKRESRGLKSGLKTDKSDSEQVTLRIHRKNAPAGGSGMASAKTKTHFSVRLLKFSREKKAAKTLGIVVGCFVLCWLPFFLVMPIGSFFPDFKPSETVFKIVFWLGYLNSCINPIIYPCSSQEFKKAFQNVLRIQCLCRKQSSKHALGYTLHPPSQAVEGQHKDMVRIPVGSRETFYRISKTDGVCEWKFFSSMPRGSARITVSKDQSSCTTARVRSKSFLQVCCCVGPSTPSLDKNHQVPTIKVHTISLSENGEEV
T1 sequence (P25100 whole entry): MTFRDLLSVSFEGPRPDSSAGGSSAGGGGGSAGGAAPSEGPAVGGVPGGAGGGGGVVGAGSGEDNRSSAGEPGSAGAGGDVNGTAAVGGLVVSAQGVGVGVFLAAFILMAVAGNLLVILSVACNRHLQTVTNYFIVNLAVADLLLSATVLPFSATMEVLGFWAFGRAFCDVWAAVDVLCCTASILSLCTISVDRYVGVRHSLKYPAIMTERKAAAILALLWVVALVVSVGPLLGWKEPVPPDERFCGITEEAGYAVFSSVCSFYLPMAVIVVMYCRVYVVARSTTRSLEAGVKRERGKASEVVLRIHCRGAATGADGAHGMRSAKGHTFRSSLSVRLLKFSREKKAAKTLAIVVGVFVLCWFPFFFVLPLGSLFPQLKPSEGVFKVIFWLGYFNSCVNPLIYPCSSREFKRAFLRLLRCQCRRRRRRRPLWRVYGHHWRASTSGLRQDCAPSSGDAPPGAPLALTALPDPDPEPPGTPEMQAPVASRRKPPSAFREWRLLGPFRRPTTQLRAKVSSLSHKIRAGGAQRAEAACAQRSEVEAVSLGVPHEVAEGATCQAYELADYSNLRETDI
T1 sequence (P35368 whole entry): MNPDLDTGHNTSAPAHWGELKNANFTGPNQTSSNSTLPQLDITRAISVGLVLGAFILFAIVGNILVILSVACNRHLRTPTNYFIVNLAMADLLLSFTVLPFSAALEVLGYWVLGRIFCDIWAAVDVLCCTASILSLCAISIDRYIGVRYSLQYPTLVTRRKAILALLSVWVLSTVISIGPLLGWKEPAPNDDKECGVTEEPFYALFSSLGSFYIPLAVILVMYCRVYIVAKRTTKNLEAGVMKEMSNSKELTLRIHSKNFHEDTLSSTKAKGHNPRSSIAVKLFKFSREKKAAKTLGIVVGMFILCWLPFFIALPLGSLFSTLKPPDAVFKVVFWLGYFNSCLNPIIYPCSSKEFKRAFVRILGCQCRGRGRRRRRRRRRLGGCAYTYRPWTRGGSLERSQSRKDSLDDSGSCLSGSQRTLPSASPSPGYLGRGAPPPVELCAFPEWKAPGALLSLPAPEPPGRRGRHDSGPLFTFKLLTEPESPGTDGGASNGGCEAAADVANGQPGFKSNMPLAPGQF

[8] = target: Beta-2 adrenergic receptor (Homo sapiens) (UniProt P07550); test: Compound was tested for its binding affinity against beta-2 adrenoceptor; IA is Inactive
[9] = target: Beta-1 adrenergic receptor (Homo sapiens) (UniProt P08588); test: Compound was tested for its binding affinity against Beta-1 adrenergic receptor; IA is Inactive
Sequence of Beta-1 adrenergic receptor (Homo sapiens) (P08588 whole entry, looked up): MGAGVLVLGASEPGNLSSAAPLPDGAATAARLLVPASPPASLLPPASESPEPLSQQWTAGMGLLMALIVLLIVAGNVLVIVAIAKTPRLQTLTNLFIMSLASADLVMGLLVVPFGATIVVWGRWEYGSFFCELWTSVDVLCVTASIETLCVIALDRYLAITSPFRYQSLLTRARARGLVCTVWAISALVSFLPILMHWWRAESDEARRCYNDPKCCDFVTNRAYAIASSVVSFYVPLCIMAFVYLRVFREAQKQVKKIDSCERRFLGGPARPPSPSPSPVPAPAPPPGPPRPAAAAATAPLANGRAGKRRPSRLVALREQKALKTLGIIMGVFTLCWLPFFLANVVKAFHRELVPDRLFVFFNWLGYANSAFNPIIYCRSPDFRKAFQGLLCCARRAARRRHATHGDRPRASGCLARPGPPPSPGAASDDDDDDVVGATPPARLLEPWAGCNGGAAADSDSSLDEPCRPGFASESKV

Sequence of D(2) dopamine receptor (P61169 whole entry): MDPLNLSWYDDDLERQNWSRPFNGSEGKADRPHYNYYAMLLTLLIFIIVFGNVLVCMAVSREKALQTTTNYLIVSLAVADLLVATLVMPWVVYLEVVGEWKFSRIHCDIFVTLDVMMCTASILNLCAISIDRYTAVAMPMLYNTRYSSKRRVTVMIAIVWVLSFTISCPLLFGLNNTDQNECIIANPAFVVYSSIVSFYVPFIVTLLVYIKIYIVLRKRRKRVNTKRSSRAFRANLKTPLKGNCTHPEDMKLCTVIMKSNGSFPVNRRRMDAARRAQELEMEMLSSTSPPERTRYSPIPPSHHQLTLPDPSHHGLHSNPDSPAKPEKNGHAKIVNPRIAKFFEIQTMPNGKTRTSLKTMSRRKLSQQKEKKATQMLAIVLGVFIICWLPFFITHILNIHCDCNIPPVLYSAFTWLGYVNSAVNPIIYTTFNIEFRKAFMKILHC
Sequence of Beta-2 adrenergic receptor (Homo sapiens) (P07550 whole entry, looked up): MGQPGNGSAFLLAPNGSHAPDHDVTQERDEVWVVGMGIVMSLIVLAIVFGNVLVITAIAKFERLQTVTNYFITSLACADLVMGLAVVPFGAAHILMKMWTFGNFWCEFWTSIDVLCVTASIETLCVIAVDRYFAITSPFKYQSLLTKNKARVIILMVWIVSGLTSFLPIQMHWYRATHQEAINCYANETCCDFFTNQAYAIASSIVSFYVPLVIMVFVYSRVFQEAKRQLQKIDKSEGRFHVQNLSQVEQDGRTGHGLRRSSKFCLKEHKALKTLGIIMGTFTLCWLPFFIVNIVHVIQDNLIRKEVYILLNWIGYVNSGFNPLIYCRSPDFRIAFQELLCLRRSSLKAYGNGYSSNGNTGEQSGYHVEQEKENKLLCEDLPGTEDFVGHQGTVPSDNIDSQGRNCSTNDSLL
Sequence of D(1A) dopamine receptor (P18901 whole entry): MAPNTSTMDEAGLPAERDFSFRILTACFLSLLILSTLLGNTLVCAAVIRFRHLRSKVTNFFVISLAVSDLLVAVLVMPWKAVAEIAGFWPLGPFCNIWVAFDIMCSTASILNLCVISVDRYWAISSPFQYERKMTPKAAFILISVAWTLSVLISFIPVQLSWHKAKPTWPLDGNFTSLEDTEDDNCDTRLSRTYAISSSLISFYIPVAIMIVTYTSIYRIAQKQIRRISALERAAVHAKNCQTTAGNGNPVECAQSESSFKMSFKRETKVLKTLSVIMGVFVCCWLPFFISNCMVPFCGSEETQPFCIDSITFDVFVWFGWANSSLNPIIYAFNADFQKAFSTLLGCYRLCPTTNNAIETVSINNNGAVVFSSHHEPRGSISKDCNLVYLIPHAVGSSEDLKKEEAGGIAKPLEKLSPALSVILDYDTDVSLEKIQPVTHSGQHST

| Structure (SMILES) | Change in blood flow (Canis familiaris [1]) | Blockade (Canis familiaris [2]) | Blockade (Canis familiaris [3]) | Change in blood flow (Canis familiaris [4]) | Cumulative urine volume (Rattus norvegicus [5]) | Decrease in blood pressure (Rattus norvegicus [6]) | pKi (D(1A) dopamine receptor) | pKi (D(2) dopamine receptor) | Log Ki [7] | Log Ki [8] | Log Ki [9] |
| --- | --- | --- | --- | --- | --- | --- | --- | --- | --- | --- | --- |
| Oc1ccc(C2CNCCc3c2cc(O)c(O)c3Cl)cc1 (stereo not given) [FENOLDOPAM] | 8 | 20% | 100% | 0.2 |  |  |  |  |  |  |  |
| NCCc1ccc(O)c(O)c1 [DOPAMINE] | 1 |  | 100% |  | 4 | 9.4 |  |  |  |  |  |
| CCCN(CCC)CCc1ccc(O)c(O)c1 |  | 80% |  | 1 |  |  | 5.33 | 7.65 | -5.7 |  |  |
| Oc1ccc(C[C@H]2CCCN2CCCCCCN2CCC[C@@H]2Cc2ccc(O)c(O)c2)cc1O | 1.2 | 70% | 100% | 359 | 17 | 22.4 | 8.19 | 8.21 | -7.25 | inactive | inactive |
| CCCN(CCCCCCN1CCC[C@@H]1Cc1ccc(O)c(O)c1)CCc1ccc(O)c(O)c1 | 6 | 70% | 100% | 382 | 24 | 18.6 | 7.73 | 8.49 | -6.41 | inactive | inactive |
| Oc1ccc(C[C@@H]2CCCN2CCCCCCN2CCC[C@H]2Cc2ccc(O)c(O)c2)cc1O | 1.2 | 0% | 100% | 0.3 |  |  | 6.21 | 7.83 | -6.41 | inactive | inactive |
| CCCCN1CCCC1Cc1ccc(O)c(O)c1 (stereo not given) |  |  |  |  |  |  | 8.10 | 8.50 |  |  |  |
| Oc1ccc(C[C@H]2CCCN2CCCCCCN2CCC[C@H]2Cc2ccc(O)c(O)c2)cc1O | 9.4 | 20% | 100% | 80 |  |  | 6.24 | 8.05 | -6.24 | inactive | inactive |
